This note sets out measurements from patent publication US20220064141A1, “BENZOPYRIDONE HETEROCYCLIC COMPOUND AND USE THEREOF” (BrightGene Bio-Medical Technology Co., Ltd., priority 2019, published 2022).

The term IC50 denotes the concentration needed to halve the response being measured.

What all share (type): cell-based
For assay [1], the system named is HCT116 human colon cancer cells with high expression of KRAS G13D. Description: Cell Titer-Glo cell viability, HCT116 cells (72 h). To be noted: HCT-116. From the text:
(§1) Effect Example 2: Pharmacodynamic Assay 2 (Determination of the efficacy of the compounds of the present disclosure on HCT116 human colon cancer cells with high expression of KRAS G13D and A549 human non-small cell lung cancer cells with high expression of KRAS G12S)
(§2) The following method was used to determine the effects of the compounds of the present disclosure on tumor cell proliferation.
(§3) For KRAS G13D subtype, HCT116 human colon cancer cell was used. For KRAS G12S subtype, A549 human non-small cell lung cancer cell was used. The efficacy of the compounds in inhibiting cancer cell viability was determined. HCT116 cells or A549 cells were cultured in a DMEM medium containing 10% fetal bovine serum, 100 U penicillin and […] streptomycin. The cells were cultured in an incubator with 5% CO2 at 37° C. Cancer cell viability was evaluated by determining the content of ATP with Cell Titer-Glo® kit (Luminescent Cell Viability Assay kit, please refer to the manufacturer's instructions for use) and evaluating the inhibition of cell growth.
(§4) The experimental method was proceeded in accordance with the steps in the instructions for the kit, and was described briefly as follows. The test compounds were first dissolved in DMSO to prepare stock solutions, and then the stock solutions were subjected to gradient dilution with the culture media of the corresponding cells, thereby preparing test samples. The final concentrations of the compounds were in the range of 30 μM to 0.01 nM. Tumor cells in logarithmic growth phase were seeded into a 96-well cell culture plate at an appropriate density. After the cell culture plate was left overnight in an incubator with 5% CO2 at 37° C., the test compound samples were added thereto and then the cells were further cultured for 72 hours. After the incubation was complete, an appropriate volume of Cell Titer-Glo® reagent was added into each well, and the cells were incubated at 37° C. for 1 to 4 hours. Then, the […] was read on a microplate reader. The percentage inhibition rates of the compounds at each concentration point were calculated by comparing the absorbance values of the sample wells with that of the control group (0.3% DMSO), and then non-linear regression analysis of the concentration of the compound vs inhibition rate was performed by using GraphPad Prism 5 software, thereby obtaining IC50 values indicating the inhibitory effects of the compounds on cell proliferation.

Assay [2] relates to NCI-H358 human non-small cell lung cancer cell with KRAS G12C mutation. Description: Cell Titer-Glo cell viability, NCI-H358 cells (72 h).
Excerpt: Effect Example 1: Pharmacodynamic Assay 1 (Determination of the efficacy of the compounds of the present disclosure on NCI-H358 human non-small cell lung cancer cell with KRAS G12C mutation)
The following method was used to determine the effect of the compounds of the present disclosure on tumor cell proliferation.
as §3, with “For the” for “For”, “G12C” for “G13D”, “NCI-H358” for “HCT116 human colon cancer cell was used. For KRAS G12S subtype, A549 human”, “cells with KRAS G12C mutation were used to determine the” for “cell was used. The”, “viability. NCI-H358” for “viability was determined. HCT116 cells or A549”
as §4, with “reader.” for “reader. The percentage inhibition rates of the compounds at each concentration point were calculated by comparing the absorbance values of the sample wells with that of the control group (0.3% DMSO), and then non-linear regression analysis of the concentration of the compound vs inhibition rate was performed by using GraphPad Prism 5 software, thereby obtaining IC50 values indicating the inhibitory effects of the compounds on cell proliferation.”

Assay [3] concerns A549 human non-small cell lung cancer cells with high expression of KRAS G12S. Description: Cell Titer-Glo cell viability, A549 cells (72 h).
Excerpt: as §1, §2, §3, §4
For orientation: ATP-based viability assays read luminescence as a measure of living cells.

The mark [4] stands for this setting: Homo sapiens, NCI-H358, 72 h, numeric values.
The mark [5] stands for this setting: Homo sapiens, NCI-H358, 72 h, class symbols.

For `C=CC(=O)N1CCN(c2c(C#N)c(=O)n(-c3ccccc3C(C)C)c3cc(-c4c(C)ccc5[nH]ncc45)c(Cl)cc23)CC1` [Compound I-1], the figures for the IC50 in assay [1], in assay [2] (setting [4]) and in assay [3] were more than 3000 nM, 1170 nM and more than 3000 nM, respectively.
For the compound `C=CC(=O)N1CCN(c2c(C#N)c(=O)n(-c3ccccc3C(C)C)c3cc(-c4c(C)ccc5[nH]ncc45)c(Cl)cc23)[C@@H](C)C1` [Compound I-2-1], the IC50 was more than 3000 nM in assay [1], 1150 nM in assay [2] (setting [4]) and more than 3000 nM in assay [3].
For the compound `C=CC(=O)N1CCN(c2ncnc3c(F)c(-c4c(O)cccc4F)c(Cl)cc23)CC1` [ARS-1620, reference compound], the IC50 in assay [1] was more than 3000 nM; in assay [2] (Homo sapiens, numeric values), 226 nM; in assay [3] it was more than 3000 nM.
Consider `C=CC(=O)N1CCN(c2c(C#N)c(=O)n(-c3ccccc3C(C)C)c3cc(-c4ccccc4C#N)c(Cl)cc23)[C@@H](C)C1` [Compound I-19], for which, in assay [2] (setting [5]), the IC50 is more than 1000 nM.
Same read-out and setting: in the case of `C=CC(=O)N1CCN(c2c(C#N)c(=O)n(-c3ccccc3C(C)C)c3cc(-c4cnc(F)cc4C)c(Cl)cc23)[C@@H](C)C1` [Compound I-32] it was 100 to 1000 nM; in that of `CCn1nccc1-c1cc2c(cc1Cl)c(N1CCN(C(C)=O)C[C@@H]1C)c(C#N)c(=O)n2-c1ccccc1C(C)C` [Compound I-25], 100 to 1000 nM.
`C=CC(=O)N1CCN(c2c(C#N)c(=O)n(-c3c(C(C)C)ncnc3C(C)C)c3cc(-c4c(C)ccc5[nH]ncc45)c(Cl)cc23)[C@@H](C)C1` [Compound I-86-2]: in assay [2] (class symbols), the IC50 fell in the range of 100 to 1000 nM.
Regarding `C=CC(=O)N1CCN(c2c(C#N)c(=O)n(-c3ccccc3C(C)C)c3cc(-c4cc(Cl)cc(Cl)c4)c(Cl)cc23)[C@@H](C)C1` [Compound I-39], the IC50 in assay [2] (setting [5]) was in the range of 100 to 1000 nM.
Same read-out and setting: in the case of `C=CC(=O)N1CCN(c2c(C#N)c(=O)n(-c3c(C)ccnc3C(C)C)c3cc(-c4c(OC)ccc(Cl)c4F)c(Cl)cc23)[C@@H](C)C1` [Compound I-84-1] it was less than 100 nM; in that of `C=CC(=O)N1CCN(c2c(C#N)c(=O)n(-c3ccccc3C(C)C)c3cc(-c4ccc(Cl)cc4N)c(Cl)cc23)[C@@H](C)C1` [Compound I-57], less than 100 nM; in that of `C=CC(=O)N1CCN(c2c(C#N)c(=O)n(-c3ccccc3C(C)C)c3cc(-c4ccc(N)nc4)c(Cl)cc23)[C@@H](C)C1` [Compound I-64], 100 to 1000 nM.
Same read-out and setting: in the case of `C=CC(=O)N1CCN(c2c(C#N)c(=O)n(-c3ccccc3C(C)C)c3cc(-c4cc(C)c(C)cc4C)c(Cl)cc23)[C@@H](C)C1` [Compound I-28] it was more than 1000 nM; in that of `C=CC(=O)N1CCN(c2c(C#N)c(=O)n(-c3ccccc3C(C)C)c3cc(-c4ccc(Cl)cc4F)c(Cl)cc23)[C@@H](C)C1` [Compound I-42], 100 to 1000 nM.
